Residue numbers refer to the chain shown, from its start. Where a SMILES comes first, the peptide text is derived from it.
Experiments:
[1] = target: T1, hTAS1R2 + hTAS1R3 V621I^2.58 (Homo sapiens, UniProt Q7RTX0+Q8TE23, V621I); assay: Calcium response (FLIPR), hTAS1R3 mutant coexpressed with hTAS1R2; assay type: cell-based; conditions: variant V621I^2.58; for EC50: (>) EC50 not calculable because saturation is not reached; for Emax: read-out: maximal signal (% of wt)
T1 construct: expressed in transfected cells; host or cells: HEK293T cells stably expressing G16Gust44
T1 sequence (Q8TE23 20-839): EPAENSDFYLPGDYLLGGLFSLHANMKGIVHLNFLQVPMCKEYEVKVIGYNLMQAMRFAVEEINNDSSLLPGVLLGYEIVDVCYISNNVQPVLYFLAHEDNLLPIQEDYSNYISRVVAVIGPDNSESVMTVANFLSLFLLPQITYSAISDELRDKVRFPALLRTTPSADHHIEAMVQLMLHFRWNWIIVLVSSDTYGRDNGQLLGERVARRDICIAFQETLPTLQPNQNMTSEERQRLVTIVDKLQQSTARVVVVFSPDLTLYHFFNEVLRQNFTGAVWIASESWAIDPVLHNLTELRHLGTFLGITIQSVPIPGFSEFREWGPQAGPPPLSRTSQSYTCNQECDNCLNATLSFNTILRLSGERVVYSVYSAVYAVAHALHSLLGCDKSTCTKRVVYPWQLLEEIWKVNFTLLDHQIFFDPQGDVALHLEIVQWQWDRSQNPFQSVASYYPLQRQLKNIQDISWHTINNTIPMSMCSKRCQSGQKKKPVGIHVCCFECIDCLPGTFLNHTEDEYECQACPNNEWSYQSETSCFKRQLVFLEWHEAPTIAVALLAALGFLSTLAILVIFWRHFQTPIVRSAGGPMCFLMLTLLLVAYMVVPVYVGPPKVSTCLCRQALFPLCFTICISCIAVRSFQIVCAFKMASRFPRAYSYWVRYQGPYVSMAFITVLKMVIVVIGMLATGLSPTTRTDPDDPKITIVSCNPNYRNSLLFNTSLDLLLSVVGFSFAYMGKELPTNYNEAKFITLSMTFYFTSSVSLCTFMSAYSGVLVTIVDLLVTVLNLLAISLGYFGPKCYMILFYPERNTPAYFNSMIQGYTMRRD
T1 sequence (Q7RTX0 21-852 V621I): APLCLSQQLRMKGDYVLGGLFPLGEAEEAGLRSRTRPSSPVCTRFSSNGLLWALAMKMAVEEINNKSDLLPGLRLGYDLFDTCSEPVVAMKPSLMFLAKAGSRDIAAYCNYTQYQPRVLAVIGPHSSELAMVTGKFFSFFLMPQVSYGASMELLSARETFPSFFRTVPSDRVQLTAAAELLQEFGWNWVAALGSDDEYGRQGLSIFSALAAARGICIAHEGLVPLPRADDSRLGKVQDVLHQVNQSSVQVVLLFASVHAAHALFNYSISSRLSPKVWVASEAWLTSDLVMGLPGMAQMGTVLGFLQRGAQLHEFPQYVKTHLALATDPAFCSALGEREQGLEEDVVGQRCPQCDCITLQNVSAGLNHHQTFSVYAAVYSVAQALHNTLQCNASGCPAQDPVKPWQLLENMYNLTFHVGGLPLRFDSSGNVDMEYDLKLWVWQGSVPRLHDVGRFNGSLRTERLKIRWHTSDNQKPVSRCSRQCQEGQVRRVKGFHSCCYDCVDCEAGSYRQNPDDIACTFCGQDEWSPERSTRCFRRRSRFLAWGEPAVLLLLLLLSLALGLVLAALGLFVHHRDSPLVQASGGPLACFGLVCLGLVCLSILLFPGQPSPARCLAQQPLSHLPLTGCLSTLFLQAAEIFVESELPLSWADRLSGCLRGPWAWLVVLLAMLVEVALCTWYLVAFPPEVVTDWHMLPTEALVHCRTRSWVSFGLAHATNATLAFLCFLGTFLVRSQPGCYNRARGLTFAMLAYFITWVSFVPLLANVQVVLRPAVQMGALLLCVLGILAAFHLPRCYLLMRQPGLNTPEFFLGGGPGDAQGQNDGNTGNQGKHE
Method in brief: (§1)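 Read-out: FLIPR calcium signal as ΔF/F = (F-F0)/F0, corrected for mock-transfected cells. Cells were HEK293T stably carrying G16Gust44, transiently transfected with HSV-tagged receptor cDNAs and dye-loaded with Fluo4-AM 24 h post transfection.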

[2] = target: T2, hTAS1R2 + hTAS1R3 V779A^6.52 (Homo sapiens, UniProt Q7RTX0+Q8TE23, V779A); assay: as above; assay type: cell-based; conditions: variant V779A^6.52; for Emax: read-out: maximal signal (% of wt)
T2 construct: expressed in transfected cells; host or cells: HEK293T cells stably expressing G16Gust44
T2 sequence (Q8TE23 20-839): T1 sequence (Q8TE23 20-839)
T2 sequence (Q7RTX0 21-852 V779A): T1 sequence (Q7RTX0 21-852 V621I) with I601V, V759A
Method in brief: as §1

Row | EC50 [1] | Emax [1] | EC50 [2] | Emax [2] | Structure (SMILES)
1 | > 1000 µM | 60 ± 14% | 200 ± 100 µM | 88 ± 14% | COc1ccc(CCC(=O)c2c(O)cc(O[C@@H]3O[C@H](CO)[C@@H](O)[C@H](O)[C@H]3O[C@@H]3O[C@@H](C)[C@H](O)[C@@H](O)[C@H]3O)cc2O)cc1O [NHDC, neohesperidin dihydrochalcone]
2 | 1900 ± 400 µM | 61 ± 1% | 1200 ± 300 µM | 52 ± 10% | COC(=O)[C@H](Cc1ccccc1)NC(=O)[C@@H](N)CC(=O)O [aspartame] (HELM PEPTIDE1{D.F.[CO[*:1]]}$$$$V2.0)

— paper PMC2099433, “The binding site for neohesperidin dihydrochalcone at the human sweet taste receptor” (BMC Structural Biology, 2007)
